# Assay results: publication PMC8778187, “A New Oxygen Containing Pyclen-Type Ligand as a Manganese(II) Binder for MRI and ^52Mn PET Applications: Equilibrium, Kinetic, Relaxometric, Structural and Radiochemical Studies” (Molecules, 2022)
# Assay: Stability and protonation constants of Zn(II) complexes by pH-potentiometry
# Assay type: physicochemical
# Conditions: Zn^2+ complex; T = 25 °C, I = 0.15 M NaCl
# Procedure: The stability and protonation constants of the metal complexes formed with H2OPC2A were determined by pH-potentiometric titrations, but, for the Cu(II) complex, UV-Vis spectrophotometric measurements were also carried out to supplement the pH-potentiometric titration data (Figures S21 and S22, Supporting Information).
# Metal stock solutions were prepared from the highest analytical grade chemicals, and their concentrations were determined by complexometric titration with standardized Na2H2EDTA and eriochrome black T indicator in the presence of ascorbic acid, and potassium hydrogen tartrate for MnCl2, murexide indicator for CaCl2 and CuCl2, eriochrome black T for MgCl2 and xylenol orange in the presence of hexamethylenetetramine for the solution of ZnCl2. The concentration of the ligand stock solution was determined by pH-potentiometric titrations. The protonation constants of the ligand were determined by the pH potentiometric titrations with 0.15 M NaOH, using 0.0025 M ligand solutions. The ionic strength was set to 0.15 M by using NaCl. The titrated samples (starting volume of 6 mL) were stirred mechanically, and thermostated at 25 °C by a circulating water bath (±0.1 °C). […]
# To avoid the effect of CO2, N2 gas was bubbled through the solutions during the titrations process. […] For the calibration of the pH meter, KH-phtalate (pH = 4.005) and borax (pH = 9.177) buffers were used, and the H^+ ion concentrations were calculated from the measured pH values by applying the method proposed by Irving et al.. A solution of approximately 0.01 M HCl was titrated with a 0.15 M NaOH solution (0.15 or 1.00 M NaCl), and the differences between the measured and calculated pH values (for the points with pH < 2.4) were used to calculate the (H^+) from the pH values measured in the titration experiments. […] The stability constants of the metal complexes (except for Cu(II)) were determined using the direct pH-potentiometric method, by titrating samples with 1:1 metal-to-ligand ratios (the number of fitted data pairs were between 127–212), allowing 1 min for the sample equilibration to occur. […]
structure (smiles),measurement,value
"O=C(O)CN1CCOCCN(CC(=O)O)Cc2cccc(n2)C1 [H23,9-OPC2A, 6-Oxa-3,9,15-triazabicyclo(9.3.1)pentadeca-1(15),11,13-triene-3,9-diacetic acid]",log KMnHL,2.08(3)
same,log KMnL,14.81(1)
same,log KMnLOH,10.95(2)
